Measured values: ChEMBL document CHEMBL1201862, “PubChem BioAssay data set” (2004)
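1) Cells in 96-well plates. 2) Compound, 48 h, 5 concentrations. 3) Linear interpolation between surrounding doses. 4) Unreached endpoint = highest concentration. The concentration for 50% growth inhibition is given as GI50.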 The source made the active and inactive calls. Cut-off read from the data, not from the text of the source: active = GI50 up to about 1.1 µM and inactive = higher.

Legend:
Assay in all cases: NCI anticancer screen, dose series, 48 h
CAKI-1 = system: CAKI-1
TK-10 = system: TK-10
KM12 = system: KM12
UO-31 = system: UO-31
HCC 2998 = system: HCC 2998
UACC-62 = system: UACC-62
NCI-H23 = system: NCI-H23
SK-OV-3 = system: SK-OV-3
MCF7 = system: MCF7
OVCAR-3 = system: OVCAR-3
LOX IMVI = system: LOX IMVI
SF-268 = system: SF-268
BT-549 = system: BT-549
SF-539 = system: SF-539
M14 = system: M14
SK-MEL-28 = system: SK-MEL-28
HT-29 = system: HT-29
MDA-N = system: MDA-N
A549 = system: A549
COLO 205 = system: COLO 205
OVCAR-4 = system: OVCAR-4
NCI-H522 = system: NCI-H522
DU-145 = system: DU-145
NCI-H460 = system: NCI-H460
CCRF-CEM = system: CCRF-CEM
HCT-15 = system: HCT-15
Malme-3M = system: Malme-3M
SN12C = system: SN12C
A498 = system: A498
IGROV-1 = system: IGROV-1
MDA-MB-435 = system: MDA-MB-435
OVCAR-5 = system: OVCAR-5
SK-MEL-5 = system: SK-MEL-5
SR = system: SR
HCT-116 = system: HCT-116
T47D = system: T47D
RXF 393 = system: RXF 393
MDA-MB-231 = system: MDA-MB-231
OVCAR-8 = system: OVCAR-8
PC-3 = system: PC-3
U-251 = system: U-251
SF-295 = system: SF-295
RPMI-8226 = system: RPMI-8226
ACHN = system: ACHN
EKVX = system: EKVX
HOP-62 = system: HOP-62
786-0 = system: 786-0
Hs-578T = system: Hs-578T
SW-620 = system: SW-620
SNB-19 = system: SNB-19
SK-MEL-2 = system: SK-MEL-2
HOP-92 = system: HOP-92
SNB-75 = system: SNB-75
UACC-257 = system: UACC-257
NCI/ADR-RES = system: NCI/ADR-RES
MOLT-4 = system: MOLT-4
NCI-H226 = system: NCI-H226
HL-60 = system: HL-60
K562 = system: K562

`Cc1cc(C)n(CN(Cn2nc(C)cc2C)C2CCCCC2)n1` was tested, and the GI50 (CAKI-1) was 31.5 µM (inactive), the GI50 (TK-10) was 44.4 µM (inactive) and the GI50 (KM12) was 21.2 µM (inactive). For the same compound, the GI50 (UO-31) was 20.8 µM (inactive), the GI50 (HCC 2998) was 14.6 µM (inactive) and the GI50 (UACC-62) was 21.5 µM (inactive). The GI50 (NCI-H23) was 24 µM (inactive), the GI50 (SK-OV-3) was 38 µM (inactive) and the GI50 (MCF7) was 32.6 µM (inactive). The GI50 (OVCAR-3) was 25.9 µM (inactive), the GI50 (LOX IMVI) was 0.0652 µM (active) and the GI50 (SF-268) was 33 µM (inactive). For the same compound, the GI50 (BT-549) was 23.3 µM (inactive), the GI50 (SF-539) was 15.7 µM (inactive) and the GI50 (M14) was 20.3 µM (inactive). For the same compound, the GI50 (SK-MEL-28) was 20.7 µM (inactive), the GI50 (HT-29) was 21.1 µM (inactive) and the GI50 (MDA-N) was 19 µM (inactive). The GI50 (A549) was 66.2 µM (inactive), the GI50 (COLO 205) was 18.1 µM (inactive) and the GI50 (OVCAR-4) was 24.2 µM (inactive). The GI50 (NCI-H522) was 20.7 µM (inactive), the GI50 (DU-145) was 24.3 µM (inactive) and the GI50 (NCI-H460) was 61.8 µM (inactive). For the same compound, the GI50 (CCRF-CEM) was 19 µM (inactive), the GI50 (HCT-15) was 20.6 µM and the GI50 (Malme-3M) was 20.5 µM (inactive). The GI50 (SN12C) was 27.5 µM (inactive), the GI50 (A498) was > 100 µM (inactive) and the GI50 (IGROV-1) was 20.1 µM (inactive). For the same compound, the GI50 (MDA-MB-435) was 22.2 µM (inactive), the GI50 (OVCAR-5) was 22.9 µM (inactive) and the GI50 (SK-MEL-5) was 31.2 µM (inactive). For the same compound, the GI50 (SR) was 30.1 µM (inactive), the GI50 (HCT-116) was 22.4 µM (inactive) and the GI50 (T47D) was 28.2 µM (inactive). The GI50 (RXF 393) was 22.4 µM (inactive), the GI50 (MDA-MB-231) was 26.6 µM (inactive) and the GI50 (OVCAR-8) was 25.7 µM (inactive). The GI50 (PC-3) was 22.9 µM (inactive), the GI50 (U-251) was 32.1 µM (inactive) and the GI50 (SF-295) was 94 µM (inactive). The GI50 (RPMI-8226) was 18.6 µM (inactive), the GI50 (ACHN) was 23.4 µM (inactive) and the GI50 (EKVX) was 31.8 µM (inactive). The GI50 (HOP-62) was 31.3 µM (inactive), the GI50 (786-0) was 23.1 µM (inactive) and the GI50 (Hs-578T) was > 100 µM (inactive). The GI50 (SW-620) was 29.7 µM (inactive), the GI50 (SNB-19) was 85.1 µM (inactive) and the GI50 (SK-MEL-2) was 17.6 µM (inactive). For the same compound, the GI50 (HOP-92) was 28.8 µM (inactive), the GI50 (SNB-75) was 17.1 µM (inactive) and the GI50 (UACC-257) was 28.1 µM (inactive). For the same compound, the GI50 (NCI/ADR-RES) was 19.8 µM (inactive).

`O=C1CC(Nc2ccccc2)c2c(Cl)sc(Cl)c21` (stereo not drawn) was tested, and the GI50 (CAKI-1) was 0.65 µM (active), the GI50 (TK-10) was 1.81 µM (inactive) and the GI50 (KM12) was 0.483 µM (active). For the same compound, the GI50 (UO-31) was 1.11 µM (active), the GI50 (HCC 2998) was 1.76 µM (inactive) and the GI50 (UACC-62) was 1.32 µM (inactive). The GI50 (NCI-H23) was 1.91 µM (inactive), the GI50 (SK-OV-3) was 13.4 µM (inactive) and the GI50 (MCF7) was 1.47 µM (inactive). For the same compound, the GI50 (OVCAR-3) was 1.79 µM (inactive), the GI50 (LOX IMVI) was 0.39 µM (active) and the GI50 (SF-268) was 0.778 µM (active). For the same compound, the GI50 (BT-549) was 2.22 µM (inactive), the GI50 (SF-539) was 0.527 µM (active) and the GI50 (MOLT-4) was 0.484 µM (active). The GI50 (M14) was 1.66 µM (inactive), the GI50 (SK-MEL-28) was 1.86 µM (inactive) and the GI50 (HT-29) was 1.7 µM (inactive). The GI50 (NCI-H226) was 8.65 µM (inactive), the GI50 (MDA-N) was 1.65 µM (inactive) and the GI50 (A549) was 2.05 µM (inactive). The GI50 (COLO 205) was 0.906 µM (active), the GI50 (OVCAR-4) was 2.01 µM (inactive) and the GI50 (NCI-H522) was 0.139 µM (active). For the same compound, the GI50 (HL-60) was 0.199 µM (active), the GI50 (DU-145) was 1.6 µM (inactive) and the GI50 (NCI-H460) was 6.37 µM (inactive). The GI50 (CCRF-CEM) was 0.127 µM (active), the GI50 (HCT-15) was 0.767 µM and the GI50 (Malme-3M) was 1.42 µM (inactive). The GI50 (SN12C) was 1.51 µM (inactive), the GI50 (A498) was 2.5 µM (inactive) and the GI50 (IGROV-1) was 1.61 µM (inactive). The GI50 (MDA-MB-435) was 1.52 µM (inactive), the GI50 (OVCAR-5) was 2.34 µM (inactive) and the GI50 (SK-MEL-5) was 4.66 µM (inactive). For the same compound, the GI50 (SR) was 0.52 µM (active), the GI50 (HCT-116) was 1.19 µM (inactive) and the GI50 (K562) was 1.12 µM (active). The GI50 (T47D) was 1.48 µM (inactive), the GI50 (MDA-MB-231) was 1.92 µM (inactive) and the GI50 (OVCAR-8) was 1.4 µM (inactive). The GI50 (PC-3) was 1.49 µM (inactive), the GI50 (U-251) was 1.68 µM (inactive) and the GI50 (SF-295) was 5.11 µM (inactive). The GI50 (RPMI-8226) was < 0.01 µM (active), the GI50 (ACHN) was 1.18 µM (inactive) and the GI50 (EKVX) was 1.76 µM (inactive). The GI50 (HOP-62) was 2.57 µM (inactive), the GI50 (786-0) was 0.234 µM (active) and the GI50 (Hs-578T) was 2.42 µM (inactive). The GI50 (SW-620) was 0.369 µM (active), the GI50 (SNB-19) was 5.19 µM (inactive) and the GI50 (SK-MEL-2) was 1.89 µM (inactive). The GI50 (HOP-92) was 1.41 µM (inactive), the GI50 (SNB-75) was 2.31 µM (inactive) and the GI50 (UACC-257) was 1.85 µM (inactive). The GI50 (NCI/ADR-RES) was 2.42 µM (inactive).
